Patent US10195156B2, “Compounds and compositions for intracellular delivery of agents” (ModernaTX, Inc., priority 2015, dated 2019)

What was measured:
[1] = pKa of nanoparticle compositions; type: physicochemical
[2] = tested on: LDL-c; assay: LDL levels in LDLr−/− mice after mRNA encoding the LDL receptor; type: in vivo, LDLR knockout mice; conditions: Mus musculus; Table 7b; LDLr−/− mice, 0.5 mpk, LDLr; read-out: LDL levels lipid/untreated LDLr−/− mice 0.5 mpk, LDLr
[3] = Lipid clearance: % dose remaining in mouse liver 6 h and 24 h after administration of nanoparticle compositions; type: in vivo, CD-1 mice
Excerpt: In contrast, hEPO expression in rats induced by administration of a nanoparticle composition including a compound according to one of formulae (I), (Ia1)-(Ia6), (Ib), (II), (IIa), (III), and (IIIa) was substantially […] than that measured for MC3. […] Table 7c and 7d show additional protein expressions and clearance data from compositions with various compounds disclosed herein as compared to with MC3.

pKa ([1]; Table 1, rows without footnote mark)	pKa ([1]; Table 5, hEPO mRNA, 40:20:38.5:1.5 Lipid:DOPE:Chol:PEG-DMG)	% Dose remaining 6 h CD-1 mice ([3]; 6 h, CD-1 mice)	% Dose remaining 24 h CD-1 mice ([3]; 24 h, CD-1 mice)	% Dose Remaining 6 hr ([3]; Table 7c, 6 hr)	% Dose Remaining 24 hr ([3]; Table 7c, 24 hr)	% dose remaining Mouse liver (24 h) ([3]; mouse liver, 24 h)	Structure (SMILES)	response vs control in vivo at 0.5 mg/kg [2]
5.44	5.444	–	–	–	–	–	CCCCCCCCCCCCN(CCCCCCCCCCCC)CCN(CCCCCCCCCCCC)CCN1CCN(CCN(CCCCCCCCCCCC)CCCCCC(=O)OCCCCC)CC1 [Compound 12, Pentyl 6-((2-(4-(2-((2-(didodecylamino)ethyl)(dodecyl)amino)ethyl)piperazin-1-yl)ethyl)(dodecyl)amino)hexanoate]	–
–	–	88%	55%	55.70%	55.43%	55%	CCCCCC=CCC=CCCCCCCCCC(CCCCCCCCC=CCC=CCCCCC)OC(=O)CCCN(C)C (centres unmarked) [MC3, heptatriaconta-6,9,28,31-tetraen-19-yl 4-(dimethylamino)butanoate, reference compound]	55%
